In PubChem BioAssay AID1963966 (Molecular Pharmacology Branch, DTP, NCI, 2024):

Test system: 935938-334-R-J1-PDC spheroids with HUVEC/MSC, viability
Test: Anticancer human tumor 935938-334-R-J1-PDC patient-derived small intestine adenocarcinoma cell line growth inhibition [PI3K]
Conditions: for IC50: curve of first compound; for viability, T/C: stronger effect = lower value
Procedure, shortened: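 Multi-cell spheroids combine tumor cells with HUVEC and human MSCs, treated with targeted agents alone or with inavolisib, alpelisib, duvelisib or copanlisib. Concentrations fall in half-log steps from at or near clinical Cmax, or from 10 microM where Cmax is unknown; viability read-out.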
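Note: compound exposure lasted seven days before viability was read.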
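Throughout, for viability, T/C: percent of vehicle DMSO treated spheroid viability so 100% = untreated.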

SMILES: CC(C)NCC(C(=O)N1CCN(c2ncnc3c2C(C)CC3O)CC1)c1ccc(Cl)cc1 (configuration not stated) + Cc1nc(NC(=O)N2CCCC2C(N)=O)sc1-c1ccnc(C(C)(C)C(F)(F)F)c1
- IC50 (second compound 0.0316 µM): 2020 nM
- IC50 (second compound 0.1 µM): > 10000 nM
- IC50 (second compound 0.316 µM): 1840 nM
- IC50 (second compound 1 µM): 1290 nM
- IC50 (second compound 3.16 µM): 79.6 nM
- IC50 (second compound 10 µM): 328 nM
- viability, T/C (second compound 0.0316 µM, first compound 0.0316 µM): 80.2%
- viability, T/C (second compound 0.0316 µM, first compound 0.1 µM): 104%
- viability, T/C (second compound 0.0316 µM, first compound 0.316 µM): 75.9%
- viability, T/C (second compound 0.0316 µM, first compound 1 µM): 61.5%
- viability, T/C (second compound 0.0316 µM, first compound 3.16 µM): 44.3%
- viability, T/C (second compound 0.0316 µM, first compound 10 µM): 37.4%
- viability, T/C (second compound 0.1 µM, first compound 0.0316 µM): 89.2%
- viability, T/C (second compound 0.1 µM, first compound 0.1 µM): 101%
- viability, T/C (second compound 0.1 µM, first compound 0.316 µM): 82.5%
- viability, T/C (second compound 0.1 µM, first compound 1 µM): 50.5%
- viability, T/C (second compound 0.1 µM, first compound 3.16 µM): 61%
- viability, T/C (second compound 0.1 µM, first compound 10 µM): 44.2%
- viability, T/C (second compound 0.316 µM, first compound 0.0316 µM): 94.7%
- viability, T/C (second compound 0.316 µM, first compound 0.1 µM): 80.5%
- viability, T/C (second compound 0.316 µM, first compound 0.316 µM): 86.2%
- viability, T/C (second compound 0.316 µM, first compound 1 µM): 55.8%
- viability, T/C (second compound 0.316 µM, first compound 3.16 µM): 49.4%
- viability, T/C (second compound 0.316 µM, first compound 10 µM): 38.5%
- viability, T/C (second compound 1 µM, first compound 0.0316 µM): 70%
- viability, T/C (second compound 1 µM, first compound 0.1 µM): 67.4%
- viability, T/C (second compound 1 µM, first compound 0.316 µM): 72.8%
- viability, T/C (second compound 1 µM, first compound 1 µM): 54.4%
- viability, T/C (second compound 1 µM, first compound 3.16 µM): 33.6%
- viability, T/C (second compound 1 µM, first compound 10 µM): 35.8%
- viability, T/C (second compound 3.16 µM, first compound 0.0316 µM): 74.9%
- viability, T/C (second compound 3.16 µM, first compound 0.1 µM): 43%
- viability, T/C (second compound 3.16 µM, first compound 0.316 µM): 46.5%
- viability, T/C (second compound 3.16 µM, first compound 1 µM): 52.8%
- viability, T/C (second compound 3.16 µM, first compound 3.16 µM): 39.9%
- viability, T/C (second compound 3.16 µM, first compound 10 µM): 27.8%
- viability, T/C (second compound 10 µM, first compound 0.0316 µM): 47.9%
- viability, T/C (second compound 10 µM, first compound 0.1 µM): 52.5%
- viability, T/C (second compound 10 µM, first compound 0.316 µM): 51%
- viability, T/C (second compound 10 µM, first compound 1 µM): 35.9%
- viability, T/C (second compound 10 µM, first compound 3.16 µM): 39.3%
- viability, T/C (second compound 10 µM, first compound 10 µM): 32.2%
